{"source": "patent US9145404B2", "about": "“Tetomilast polymorphs” (Otsuka Pharmaceutical Co., Ltd., priority 2006, dated 2015)", "key": {"[1]": {"assay": "Transformation of type B crystal to type A crystal while stirred as a suspension in acetone-water, crystal form by powder X-ray diffraction", "type": "physicochemical", "details": "5 g suspended in 40 ml acetone and 10 ml water", "experimental": "(§1) The powder X-ray diffraction spectrum was measured in an angle of diffraction that ranged from 3° to 40°, according to the general test method of the Pharmacopoeia of Japan, using RAD-2B diffractometer (radiation source: CuKα) manufactured by Rigaku Denki. During the measurement, voltage/current was set at 35 kV/20 mA, and the scan speed was set at 5°/min.\nThe mixing ratio of a mixture consisting of an anhydrous tetomilast type A crystal and an anhydrous tetomilast type B crystal was obtained by comparing the powder X-ray diffraction spectrum of the above mixture, with the powder X-ray diffraction spectrum of a mixture formed by mixing a pure anhydrous tetomilast type A crystal and a pure anhydrous tetomilast type B crystal at various ratios.\nThermal transformation from an anhydrous tetomilast type B crystal to an anhydrous tetomilast type A crystal was confirmed by the means described in (1) to (3) below:\n(§2) (2) 5 g of the anhydrous tetomilast type B crystal obtained in Reference example 1 (3) was suspended in a solution consisting of 40 ml of acetone and 10 ml of water, and the obtained mixture was then stirred at 20° C. At that time, sampling was carried out at intervals of 15 minutes, 30 minutes, 60 minutes, and 120 minutes, and each of the obtained samples was subjected to powder X-ray diffraction to examine the crystal form.\nas §2, with “(3)” for “(2)”, “40°” for “20°”, “form. As a result, it could be confirmed that the sample collected after stirring for 15 minutes was a mixture consisting of an anhydrous tetomilast type B crystal and an anhydrous tetomilast type A crystal (A:B=50:50).” for “form.”"}, "[2]": {"assay": "Crystal form after standing at 20° C. to 30° C., examined by powder X-ray diffraction", "type": "physicochemical", "details": "left at a temperature between 20° C. and 30° C. for approximately 1 year", "experimental": "as §1\n(1) The anhydrous tetomilast type B crystal obtained in Reference example 1 (3) was left at a temperature between 20° C. and 30° C. for approximately 1 year, and thereafter, the crystal form thereof was examined by powder X-ray diffraction."}}, "data": [{"smiles": "CCOc1ccc(-c2nc(-c3cccc(C(=O)O)n3)cs2)cc1OCC", "note": "[anhydrous tetomilast type B crystal, 2-(3,4-diethoxyphenyl)-4-(2-carboxy-6-pyridyl)thiazole]", "values": [{"measurement": "crystal form by powder X-ray diffraction", "setting": "[1]; stirred at 20° C., 15 minutes", "value": "maintained the form as an anhydrous tetomilast type B crystal"}, {"measurement": "crystal form by powder X-ray diffraction", "setting": "[1]; stirred at 20° C., 30 minutes", "value": "maintained the form as an anhydrous tetomilast type B crystal"}, {"measurement": "crystal form by powder X-ray diffraction", "setting": "[1]; stirred at 20° C., 60 minutes", "value": "maintained the form as an anhydrous tetomilast type B crystal"}, {"measurement": "crystal form by powder X-ray diffraction", "setting": "[1]; stirred at 40° C., 30 minutes", "value": "changed to an anhydrous tetomilast type A crystal"}, {"measurement": "crystal form by powder X-ray diffraction", "setting": "[1]; stirred at 40° C., 60 minutes", "value": "changed to an anhydrous tetomilast type A crystal"}, {"measurement": "crystal form by powder X-ray diffraction", "setting": "[1]; stirred at 40° C., 120 minutes", "value": "changed to an anhydrous tetomilast type A crystal"}, {"measurement": "crystal form by powder X-ray diffraction", "setting": "[2]", "value": "maintained the form as an anhydrous tetomilast type B crystal"}]}]}
